Test: Hair straightening efficacy on hair switches, expert grading after wash-and-dry cycles
Conditions: 10% treatment, QSP water buffered at pH 10; flat iron 232° C., 8 passes; after 10 wash cycles; 0-10 scale (0 curly, 10 very straight)
Protocol: The hair straightening efficacy is tested for the crosslinking compositions described herein. Switches of low lift naturally curly hair are employed. These are shampooed with a Pantene clarifying shampoo to ensure the hair is in a clean state with no residues that could affect the end result. The switches are then rinsed. Excess water is removed from the hair by wringing out the switches. The switches are treated with a crosslinking composition; QSP water buffered at pH 10. These ingredients are mixed on a spinner plate for 30 mins. 0.5 g of crosslinking composition per 1 g hair is employed. The crosslinking composition is left on the hair for 30 minutes. After this time, the hair is blow dried and brushed. The switches are then mechanically straightened with a flat iron (at 450° F. [232° C.] with 8 passes.
The switches are then imaged. To simulate durability, the switches are then given one wash-and-dry cycle. One wash-and-dry cycle involves shampooing with a Hairtrition shampoo (Hairtrition Color Protect sulfate-free shampoo from Zotos), rinsing and then drying in a hot box. Once dry the switches are imaged again. The switches are then given 9 further wash-and-dry cycles. Once dry the switches are imaged again. An expert grader gives the images of the switches a score on a 0-10 scale. The scale is a standard scale set as curly hair having 4-5 nodes of curls is a score of 0 and very straight hair is a 10. Thus, the switches are compared to a normal state of hair. Using an expert grader is reliable because the grader is trained on measuring/scaling the configuration of the hair from straight to curly in a consistent way. Numeric data obtained by this method is averaged, and statistical analysis is conducted using JMP statistical software available from the SAS Institute at the […] confidence level. […] However, given similar straightening efficacy the dialdehyde compounds described herein have advantages over glutaraldehyde due to the lower cost of materials and increased safety profile.

SMILES	Straightening efficacy Mean grade
O=CC(O)CO (stereo not drawn) [Glyceraldehyde]	2.67
O=CCCCC=O [Glutaraldehyde, glutaraldehyde]	5.00
O=CC(O)C(O)C(O)C=O (stereo not drawn) [Pentodialdose, pentodialdose]	5.33
